Test results as given in patent US20170096708A1, “DIAGNOSTIC METHOD” (Convergence Pharmaceuticals Limited, priority 2014, published 2017).
Structures can show the parent of a compound that is named as a salt.

Test system: trigeminal neuralgia (TGN) patients
Assay: 7 week randomized withdrawal trial with trigeminal neuralgia (TGN) patients
Assay type: in vivo, human
Source text: CNV1014802 is a novel Nav1.7 selective state-dependent sodium channel blocker that is being assessed in the treatment of trigeminal neuralgia. The trial used a randomized withdrawal design to assess efficacy in this rare condition and comprised a 21-day open-label phase followed by a randomized 28-day placebo-controlled phase for responders as described in Zakrzewska et al., (2013) Trials 14:402). Patients participated in an initial open-label treatment period of 21 days of CNV1014802 using 150 mg three times daily. Responders were then randomized to 28 days of CNV1014802 150 mg three times daily or placebo. A responder at the end of the open-label period was defined as a patient with one of the following: • 1) a 30% or more decrease in the total number of paroxysms over the last 7 days of the open-label phase as compared to the total number recorded in the 7-day baseline phase (day-7 to -1 prior to start of study medication, Run in); and/or • 2) a 30% reduction in the mean severity of pain experienced during the paroxysm over the last 7 days of the open-label phase as compared to the total number recorded in the 7-day baseline phase (day-7 to -1 prior to start of study medication, run in); and/or • 3) a Patient Global Improvement of Change rating of much improved/very much improved. Responders were randomized to CNV1014802 or placebo, in a 1:1 ratio. During the double-blind randomized phase, patients were evaluated at each clinic visit, which occurred every 7 days to determine whether they met the failure criteria in the double-blind treatment period. […]

NC(=O)[C@@H]1CC[C@H](c2ccc(OCc3ccccc3F)cc2)N1 [CNV1014802, (5R)-5-(4-{[(2-fluorophenyl)methyl]oxy}phenyl)-L-prolinamide hydrochloride salt]
reduction in pain severity (150 mg three times daily, final week of double-blind (week 7) vs 7 day run-in, LOCF, compared to placebo group, p=0.04, FIG. 1): superior
reduction in the number of paroxysms (150 mg three times daily, final week of double-blind (week 7) vs 7 day run-in, LOCF, compared to placebo group, p=0.08, FIG. 1): superior
response to treatment in patients with genetic variations within the CACNA1A gene and/or the CACNA1B gene (all patients with genetic variations, responder criteria of the 21-day open-label phase): responded to treatment
